Columns and labels:
normal rabbits (Kbl:JW) = experiment: Acceleratory effects on defecation in normal rabbits (stool weight, water content of stools); assay type: in vivo, rabbit
From the text: To study the difference of effects between GM-611 and a laxative, sennoside (sennoside solution (trade name), Taisho Pharm. Ind., Ltd.) was used as a laxative to compare with acceleratory effects of GM-611 on defecation. More specifically, normal rabbits were orally administered with GM-611 or sennoside and then measured for the weight and water content of stools. Normal rabbits (Kbl:JW), in groups of 13 to 15, were orally administered with vehicle (3 w/v % gum arabic suspension), GM-611 (1.25 mg/kg, 2.5 mg/kg, 5 mg/kg, 10 mg/kg), vehicle (purified water), or sennoside (12 mg/kg, 24 mg/kg, 48 mg/kg). The stool weight was then measured every 4 hours until 8 hours after administration. Also, their stools were collected, dried in a dry oven (at 120° C. for 24 hours or longer) and then the dry stool weight was measured to calculate the water content of stools (%) according to the following formula: ((wet stool weight [g]−dry stool weight [g]))/wet stool weight [g])×100.

[1] = test system: rabbits with morphine-induced defecation dysfunction; experiment: Improving effect on morphine-induced defecation dysfunction in rabbits (stool weight); assay type: in vivo, rabbit; conditions: morphine 1 mg/kg s.c.
Experimental: Effects on defecation dysfunction can be studied using an animal model with morphine-induced defecation dysfunction. To study the effect of GM-611 on defecation dysfunction, rabbits were subcutaneously administered with morphine (Anpec (trade name), Dainippon Pharmaceutical Co., Ltd.) to induce defecation dysfunction and then the stool weight was measured to evaluate the acceleratory effect of GM-611 on defecation in the model. Rabbits (Kbl:JW) were subcutaneously administered with vehicle (physiological saline) or morphine (1 mg/kg) and fed for 30 minutes (feeding stimulation), followed by oral administration of vehicle (3 w/v % gum arabic suspension) or GM-611 at a dose of 1.25 mg/kg, 2.5 mg/kg, 5 mg/kg, 10 mg/kg or 20 mg/kg. The stool weight for 2.5 hours after administration was measured (11 rabbits in each group) to examine the improving effect of GM-611 on morphine-induced defecation dysfunction.

normal dogs (beagle) = experiment: Acceleratory effect on defecation in normal dogs (time until the first defecation); assay type: in vivo, dog
Experimental: In addition to the studies in rabbits, the acceleratory effect of GM-611 on defecation was also studied in normal dogs. Five beagle dogs were each catheterized to insert an intragastric catheter (Chugai Pharmaceutical Co., Ltd., 8.3-9.9 kg, 2 males and 3 females). Each dog was fed with pellets (CD-5 (CLEA Japan, Inc.), about 250 g) at 9:00 a.m. and then monitored for its defecation immediately after feeding. One hour after feeding, the animals […] defecation within 1 hour were intragastrically administered via the catheter with vehicle (3 w/v % gum arabic suspension) or GM-611 (0.3 mg/kg, 1 mg/kg, 3 mg/kg) and then measured for the time until the first defecation after administration.

healthy male volunteers = experiment: Acceleratory effect on defecation in healthy volunteers (Phase I, repeated oral administration); assay type: in vivo, human
Experimental: The acceleratory effect of GM-611 on defecation was studied by repeated oral administration of GM-611 in Phase I trials. Healthy male volunteers, in groups of 6, were orally administered for 10 days with placebo or GM-611 (5 mg, 10 mg, 20 mg) on a three-times-a-day basis together with 150 mL water at 30 minutes before each meal, provided that the volunteers were administered once before breakfast on the first and tenth days. The volunteers were then monitored for their defecation during the period of administration. The acceleratory effect on defecation was assessed by the daily frequency of defecation, the number of days that at least one defecation was observed (the number of defecation days), and stool condition (watery diarrhea, muddy diarrhea, muddy soft stool, formed soft stool, normal stool, hard stool, very hard stool). It should be noted that in this test, the subjects were allocated at random to each test group and tested in a double-blind manner.

[2] = compared with erythromycin; cited from earlier work

CC[C@H]1OC(=O)[C@H](C)[C@@H](O[C@H]2C[C@@](C)(OC)[C@@H](O)[C@H](C)O2)[C@H](C)[C@@H](O[C@@H]2O[C@H](C)C[C@H](N(C)C(C)C)[C@H]2O)[C@@]2(C)CC(C)=C(O2)[C@H](C)C(=O)[C@]1(C)OC.CC[C@H]1OC(=O)[C@H](C)[C@@H](O[C@H]2C[C@@](C)(OC)[C@@H](O)[C@H](C)O2)[C@H](C)[C@@H](O[C@@H]2O[C@H](C)C[C@H](N(C)C(C)C)[C@H]2O)[C@@]2(C)CC(C)=C(O2)[C@H](C)C(=O)[C@]1(C)OC.O=C(O)/C=C/C(=O)O [GM-611, erythromycin, 8,9-didehydro-N-demethyl-9-deoxo-6,11-dideoxy-6,9-epoxy-12-O-methyl N-(1-methylethyl)-11-oxo-, (2E)-2-butenedioate (2:1)]
water content of stool (normal rabbits (Kbl:JW); oral 1.25-10 mg/kg GM-611): no change | stool weight (normal rabbits (Kbl:JW); oral 1.25-10 mg/kg, 0 to 4 hours after administration, vs vehicle): dose-dependently increased | stool weight at the maximum dose ([1]; GM-611 20 mg/kg oral, 2.5 hours): reached the same level as observed in the morphine-untreated group | morphine-induced defecation dysfunction (stool weight for 2.5 hours after administration) ([1]; feeding stimulation, oral GM-611 1.25-20 mg/kg): dose-dependently improved | stool condition (normal dogs (beagle); at first defecation after administration): not diarrhea | time until the first defecation after administration (normal dogs (beagle); intragastric 0.3, 1, 3 mg/kg, 1 hour after feeding): dose-dependently decreased | average number of defecation days (healthy male volunteers; healthy male volunteers, 5, 10, 20 mg three times a day oral for 10 days, averaged over all GM-611 groups, placebo 6.0): 8.2 | average daily frequency of defecation (healthy male volunteers; healthy male volunteers, 5, 10, 20 mg three times a day oral for 10 days, placebo 0.7): 1.0 | stool condition (healthy male volunteers; healthy male volunteers, GM-611-treated groups vs placebo-treated group): no change | antibacterial action [2]: weaker antibacterial action than erythromycin

sennoside [reference compound]
water content of stools (normal rabbits (Kbl:JW); oral sennoside 12-48 mg/kg): increased dose-dependently | stool weight (normal rabbits (Kbl:JW); oral sennoside 12-48 mg/kg, significant during 4 to 8 hours after administration (delayed)): dose-dependently increased

CN1CC[C@]23c4c5ccc(O)c4O[C@H]2[C@@H](O)C=C[C@H]3[C@H]1C5 [morphine, reference compound]
defecation enhanced by feeding stimulation (stool weight) ([1]; vs physiological saline): significantly inhibited
